We go through three molecules from ChEMBL document CHEMBL4351025, “Indole-nitroimidazole conjugates as efficient manipulators to decrease the genes expression of methicillin-resistant Staphylococcus aureus” (Eur J Med Chem, 2019).

In brackets after ≈: the same amount, converted by molar mass. Activity calls are given as the source filed them. The calls are words filed in the database; no cut-off is given here.

Data set [1] has as its target T1, Albumin (Homo sapiens, UniProt P02768). Briefly: Binding affinity to HSA assessed as quenching constant at 290 K by spectrofluorimetric analysis. In kind it is ADME. The conditions noted are these: isolated protein.
Data set [2] addresses T1, Albumin. Briefly: Binding affinity to HSA assessed as quenching constant at 300 K by spectrofluorimetric analysis. In kind it is ADME. The conditions noted are these: isolated protein.
The subject of data set [3] is Staphylococcus aureus. Put plainly: Antibacterial activity against methicillin-resistant Staphylococcus aureus N315 incubated for 24 hrs by two fold serial dilution method. Conditions: N315, 24 h. In kind it is functional.
For data set [4], the system named is Enterococcus faecalis. Briefly: Antibacterial activity against Enterococcus faecalis incubated for 24 hrs by two fold serial dilution method. In kind it is functional.
Data set [5] relates to Staphylococcus aureus. Briefly: Antibacterial activity against Staphylococcus aureus ATCC 29213 incubated for 24 hrs by two fold serial dilution method. Conditions: ATCC 29213, 24 h. In kind it is functional.
The test system of data set [6] is Klebsiella pneumoniae. Put plainly: Antibacterial activity against Klebsiella pneumoniae incubated for 24 hrs by two fold serial dilution method. In kind it is functional.
Another data set has as its system Escherichia coli. Briefly: Antibacterial activity against Escherichia coli incubated for 24 hrs by two fold serial dilution method. In kind it is functional.
Another data set relates to Pseudomonas aeruginosa. Briefly: Antibacterial activity against Pseudomonas aeruginosa incubated for 24 hrs by two fold serial dilution method. In kind it is functional.
Data set [7] concerns Acinetobacter baumannii. Briefly: Antibacterial activity against Acinetobacter baumannii incubated for 24 hrs by two fold serial dilution method. In kind it is functional.
In data set [8] the test system is Staphylococcus aureus. Put plainly: Antibacterial activity against methicillin-resistant Staphylococcus aureus N315 at 0.5 times MIC measured over 6 passages. In kind it is functional, organism-based.
In data set [9] the test system is DNA. Briefly: Binding affinity to methicillin-resistant Staphylococcus aureus N315 DNA assessed as hyperchromic effect by neutral red dye based UV-visible spectrophotometric method. In kind it is nucleic-acid assay. Conditions: Staphylococcus aureus subsp. aureus N315.
Data set [10] relates to DNA. Put plainly: Binding affinity to methicillin-resistant Staphylococcus aureus DNA assessed as reduction in neutral red binding to DNA by UV-visible spectrophotometric method. In kind it is nucleic-acid assay.
Data set [11] relates to Staphylococcus aureus. Briefly: Induction of membrane permeabilization in methicillin-resistant Staphylococcus aureus N315 assessed as increase in fluorescence intensity at 12 times MIC measured within 70 mins by propidium iodide staining based fluorescence assay. In kind it is functional, organism-based.
Data set [12] concerns Staphylococcus aureus. Briefly: Antibacterial activity against methicillin-resistant Staphylococcus aureus N315 assessed as reduction in MecA gene expression incubated for 3 hrs by qRT-PCR analysis. In kind it is functional, organism-based. A general note: In qPCR the cycle at which signal appears reflects the starting amount.
Data set [13] has as its system Staphylococcus aureus. Briefly: Antibacterial activity against methicillin-resistant Staphylococcus aureus N315 assessed as reduction in FemB gene expression incubated for 3 hrs by qRT-PCR analysis. In kind it is functional, organism-based.
Data set [14] has as its system Staphylococcus aureus. Put plainly: Antibacterial activity against methicillin-resistant Staphylococcus aureus N315 assessed as reduction in GyrB gene expression incubated for 3 hrs by qRT-PCR analysis. In kind it is functional, organism-based.
Data set [15] deals with T1, Albumin. Briefly: Binding affinity to HSA assessed as Stem-Volmer quenching constant at 290 K by spectrofluorimetric analysis. In kind it is ADME. Conditions: isolated protein.
Data set [16] addresses T1, Albumin. Put plainly: Binding affinity to HSA assessed as Stem-Volmer quenching constant at 300 K by spectrofluorimetric analysis. In kind it is ADME. The conditions noted are these: isolated protein.
The target of data set [17] is T1, Albumin. Put plainly: Binding affinity to HSA assessed as Stem-Volmer quenching constant at 313 K by spectrofluorimetric analysis. In kind it is ADME. The conditions noted are these: isolated protein.
The target of data set [18] is T1, Albumin. Briefly: Binding affinity to HSA assessed as quenching constant at 313 K by spectrofluorimetric analysis. In kind it is ADME. Conditions: isolated protein.
The target in data set [19] is T1, Albumin. Briefly: Binding affinity to HSA assessed as effective quenching constant at 290 K by spectrofluorimetric based Stern-Volmer method. Conditions: isolated protein. In kind it is ADME.
The target in data set [20] is T1, Albumin. Put plainly: Binding affinity to HSA assessed as effective quenching constant at 300 K by spectrofluorimetric based Stern-Volmer method. In kind it is ADME. Conditions: isolated protein.
Data set [21] deals with T1, Albumin. Briefly: Binding affinity to HSA assessed as effective quenching constant at 313 K by spectrofluorimetric based Stern-Volmer method. In kind it is ADME. Conditions: isolated protein.
The target in data set [22] is T1, Albumin. Put plainly: Binding affinity to HSA assessed as binding constant at 290 K by spectrofluorimetric based Scatchard method. In kind it is ADME. Conditions: isolated protein.
Data set [23] has as its target T1, Albumin. Put plainly: Binding affinity to HSA assessed as binding constant at 300 K by spectrofluorimetric based Scatchard method. In kind it is ADME. The conditions noted are these: isolated protein.
Data set [24] concerns the target T1, Albumin. Briefly: Binding affinity to HSA assessed as binding constant at 313 K by spectrofluorimetric based Scatchard method. The conditions noted are these: isolated protein. In kind it is ADME.
Data set [25] concerns the target T1, Albumin. Briefly: Binding affinity to HSA assessed as binding constant at 298K by spectrofluorimetric based Scatchard method. In kind it is ADME. The conditions noted are these: isolated protein.
For data set [26], the target named is T1, Albumin. Briefly: Binding affinity to HSA assessed as binding constant at 298K in presence of Mg2+ ion by spectrofluorimetric based Scatchard method. In kind it is ADME. The conditions noted are these: isolated protein.
Data set [27] addresses T1, Albumin. Briefly: Binding affinity to HSA assessed as binding constant at 298K in presence of Ca2+ ion by spectrofluorimetric based Scatchard method. In kind it is ADME. The conditions noted are these: isolated protein.
Data set [28] deals with T1, Albumin. Briefly: Ratio of binding affinity for HSA assessed as binding constant at 298K in presence of Mg2+ ion to binding affinity to HSA at 298K by spectrofluorimetric based Scatchard method. In kind it is ADME. The conditions noted are these: isolated protein.
Data set [29] concerns the target T1, Albumin. Put plainly: Ratio of binding affinity for HSA assessed as binding constant at 298K in presence of Ca2+ ion to binding affinity to HSA at 298K by spectrofluorimetric based Scatchard method. In kind it is ADME. The conditions noted are these: isolated protein.
The nature of data set [30]: Cytotoxicity activity against human A549 cells assessed as cell viability at 2 to 64 ug/ml incubated for 24 hrs by MTT assay relative to control. In kind it is cell-based. The conditions noted are these: read-out: Activity. (Tetrazolium assays rely on reduction of a dye to a coloured formazan, in cell work by metabolically active cells.)
A short description of data set [31]: Cytotoxicity activity against human BEAS2B cells assessed as cell viability at 64 ug/ml incubated for 24 hrs by MTT assay relative to control. In kind it is cell-based. The conditions noted are these: BEAS-2B cells, read-out: Activity.
Data set [32] relates to DNA. Put plainly: Binding affinity to methicillin-resistant Staphylococcus aureus N315 DNA by neutral red dye based UV-visible spectrophotometric method. In kind it is nucleic-acid assay. Conditions: Staphylococcus aureus subsp. aureus N315.
In data set [33] the test system is Klebsiella pneumoniae. Put plainly: Potency index, ratio of MIC for clinafloxacin to test compound MIC for antibacterial activity against Klebsiella pneumoniae. In kind it is functional.
Data set [34] has as its system Acinetobacter baumannii. Put plainly: Potency index, ratio of MIC for norfloxacin to test compound MIC for antibacterial activity against Acinetobacter baumannii. In kind it is functional.
Data set [35] has as its system Enterococcus faecalis. Put plainly: Potency index, ratio of MIC for norfloxacin to test compound MIC for antibacterial activity against Enterococcus faecalis. In kind it is functional.

T1 sequence (P02768 whole entry): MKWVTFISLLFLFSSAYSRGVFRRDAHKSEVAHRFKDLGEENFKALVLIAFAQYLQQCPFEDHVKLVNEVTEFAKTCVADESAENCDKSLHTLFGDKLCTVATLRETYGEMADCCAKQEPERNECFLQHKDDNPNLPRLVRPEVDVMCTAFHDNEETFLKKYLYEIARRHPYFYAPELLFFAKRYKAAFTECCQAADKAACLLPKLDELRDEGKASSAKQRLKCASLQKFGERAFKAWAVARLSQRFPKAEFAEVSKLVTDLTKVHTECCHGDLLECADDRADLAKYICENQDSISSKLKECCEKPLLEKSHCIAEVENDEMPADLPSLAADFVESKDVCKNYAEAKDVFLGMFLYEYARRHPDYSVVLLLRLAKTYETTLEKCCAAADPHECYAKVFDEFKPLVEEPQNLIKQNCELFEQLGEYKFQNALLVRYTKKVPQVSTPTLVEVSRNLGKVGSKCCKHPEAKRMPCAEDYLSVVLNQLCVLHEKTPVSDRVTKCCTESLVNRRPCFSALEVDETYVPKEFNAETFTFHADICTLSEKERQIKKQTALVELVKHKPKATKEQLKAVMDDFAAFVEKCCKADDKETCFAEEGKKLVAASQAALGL

By MIC is commonly meant the lowest concentration that inhibits growth of the organism. A lower MIC goes with inhibition by little substance. In the case of `CC(=O)/C(=C/c1cn(CC(=O)N2CCCCC2)c2ccccc12)n1cc([N+](=O)[O-])nc1C`, the Kq at Albumin [1] amounted to 1.27 ×10¹³ L/mol/s; on Albumin [2] it was 1.19 ×10¹³ L/mol/s; at Albumin [18], 0.99 ×10¹³ L/mol/s; on Albumin [19] it was 132000 M⁻¹; at Albumin [20], 79800 M⁻¹; on Albumin [21], 56900 M⁻¹. Moreover, the MIC with Staphylococcus aureus [3] was 1 µg/mL (≈ 2.3 µM); with Enterococcus faecalis [4], 32 µg/mL (≈ 73.5 µM); against Staphylococcus aureus [5] it was 128 µg/mL (≈ 294 µM); with Klebsiella pneumoniae [6], 8 µg/mL (≈ 18.4 µM); in the data set with Escherichia coli, 1 µg/mL (≈ 2.3 µM); with Pseudomonas aeruginosa it was 128 µg/mL (≈ 294 µM). Further, the MIC in the data set on Acinetobacter baumannii [7] was 128 µg/mL (≈ 294 µM). The outcome in the data set on Staphylococcus aureus [8], in the data set with DNA [9], in the data set with DNA [10], with Staphylococcus aureus [11], with Staphylococcus aureus [12] and in the data set with Staphylococcus aureus [13] was Active. In the data set with Staphylococcus aureus [14], the outcome was Active. Further, the KSV on Albumin [15] is 8.14 ×10⁴ L/mol; at Albumin [16] it was 7.63 ×10⁴ L/mol; at Albumin [17], 6.35 ×10⁴ L/mol. Moreover, the Kb at Albumin [22] stood at 5.88 ×10⁴ L/mol; on Albumin [23], 5.73 ×10⁴ L/mol; on Albumin [24], 4.95 ×10⁴ L/mol; at Albumin [25], 4.624 ×10⁴ L/mol; at Albumin [26], 4.766 ×10⁴ L/mol; at Albumin [27] it was 5.729 ×10⁴ L/mol. The Ratio turned out to be 103% at Albumin [28] and 124% on Albumin [29]. Also, the viability at 24 h in [30] is more than 75%. For the same molecule, in data set [31], the viability at 24 h, 64 ug/ml was 74%. Also, in the data set with DNA [32], the Activity entry is “Dose-dependent effect”. The K with DNA [32] was 3.45 ×10⁵ L/mol.

Consider `CCN(CC)C(=O)Cn1cc(/C=C(/C(C)=O)n2cc([N+](=O)[O-])nc2C)c2ccccc21`, for which the MIC against Staphylococcus aureus [3] worked out at 16 µg/mL (≈ 37.8 µM); in the data set on Enterococcus faecalis [4], 64 µg/mL (≈ 151 µM); in the data set on Staphylococcus aureus [5], 128 µg/mL (≈ 302 µM); in the data set on Klebsiella pneumoniae [6], 8 µg/mL (≈ 18.9 µM); in the data set with Escherichia coli, 16 µg/mL (≈ 37.8 µM); in the data set on Pseudomonas aeruginosa, 16 µg/mL (≈ 37.8 µM). In the data set on Acinetobacter baumannii [7], the MIC was 1 µg/mL (≈ 2.36 µM). Further, the Ratio in the data set with Klebsiella pneumoniae [33] turned out to be 4; in the data set on Acinetobacter baumannii [34], 8.

For the molecule `CC(=O)/C(=C/c1cn(CC(=O)N2CCN(Cc3ccc(F)cc3)CC2)c2ccccc12)n1cc([N+](=O)[O-])nc1C`, the MIC amounted to 32 µg/mL (≈ 58.8 µM) against Staphylococcus aureus [3]; 2 µg/mL (≈ 3.67 µM) in the data set with Enterococcus faecalis [4]; 8 µg/mL (≈ 14.7 µM) with Staphylococcus aureus [5]; 16 µg/mL (≈ 29.4 µM) in the data set on Klebsiella pneumoniae [6]; 16 µg/mL (≈ 29.4 µM) against Escherichia coli; 32 µg/mL (≈ 58.8 µM) in the data set with Pseudomonas aeruginosa. The same molecule came in with an MIC against Acinetobacter baumannii [7] of 32 µg/mL (≈ 58.8 µM). The Ratio in the data set on Enterococcus faecalis [35] was 2.
